# Reference: publication PMC11984407, “A natural small molecule isoginkgetin alleviates hypercholesterolemia and atherosclerosis by targeting ACLY” (Theranostics, 2025)
# Experiments:
# [1] = Copper-induced LDL oxidation, agarose gel electrophoresis; conditions: varying concentrations, copper 5 μM
# Experimental: Prior to oxidation, EDTA was removed from LDL solutions (YB-001; Yiyuan Biotechnologies, Guangzhou, China). Subsequently, LDL solutions at a concentration of 0.2 mg/mL were incubated with varying concentrations of ISOGK in PBS for one h at 37 °C. The oxidation process was initiated by combining both native LDL and LDL pretreated with ISOGK with copper sulfate (99.0% purity; Jinshanting New Chemical Reagent Factory, Shanghai, China) to achieve a final copper concentration of 5 μM in PBS. This mixture was then incubated at 37 °C. Agarose gel electrophoresis was performed utilizing 0.5% agarose gels prepared in a sodium barbital buffer, following the stipulated electrophoretic methodology. The procedure was carried out in a 0.075 M sodium barbital buffer at a constant voltage of 55 V for a duration of one h. The relative electrophoretic mobility (REM) was determined by calculating the ratio of the migration distance of oxidized LDL to that of native LDL.
# HepG2 cell line = assay: CCK8 cell viability, HepG2; type: cell-based; conditions: concentrations below 7.5 μmol/L, 12 h
# Experimental: The cellular viability was assessed by conducting CCK8 assays in primary hepatocytes from C57BL/6J mouse and HepG2 cell line. Specifically, 2,000 cells per well were plated in 96-well plates and cultured with different concentrations of ISOGK for 12 h. Following this, cell absorption was quantified using a CCK8 kit (CA1210, Solarbio, Beijing, China), adhering strictly to the manufacturer's guidelines. The presented data represents the findings from three independent experiments, with each experiment consisting of four replicates.
# recombinant ACLY protein = biological target: T1, recombinant ACLY protein (Homo sapiens, UniProt P53396); assay: ACLY activity assay in vitro (cell-free ADP-Glo assay); type: biochemical; conditions: read-out: ACLY enzyme activity IC50
# T1 sequence (P53396 1-1101): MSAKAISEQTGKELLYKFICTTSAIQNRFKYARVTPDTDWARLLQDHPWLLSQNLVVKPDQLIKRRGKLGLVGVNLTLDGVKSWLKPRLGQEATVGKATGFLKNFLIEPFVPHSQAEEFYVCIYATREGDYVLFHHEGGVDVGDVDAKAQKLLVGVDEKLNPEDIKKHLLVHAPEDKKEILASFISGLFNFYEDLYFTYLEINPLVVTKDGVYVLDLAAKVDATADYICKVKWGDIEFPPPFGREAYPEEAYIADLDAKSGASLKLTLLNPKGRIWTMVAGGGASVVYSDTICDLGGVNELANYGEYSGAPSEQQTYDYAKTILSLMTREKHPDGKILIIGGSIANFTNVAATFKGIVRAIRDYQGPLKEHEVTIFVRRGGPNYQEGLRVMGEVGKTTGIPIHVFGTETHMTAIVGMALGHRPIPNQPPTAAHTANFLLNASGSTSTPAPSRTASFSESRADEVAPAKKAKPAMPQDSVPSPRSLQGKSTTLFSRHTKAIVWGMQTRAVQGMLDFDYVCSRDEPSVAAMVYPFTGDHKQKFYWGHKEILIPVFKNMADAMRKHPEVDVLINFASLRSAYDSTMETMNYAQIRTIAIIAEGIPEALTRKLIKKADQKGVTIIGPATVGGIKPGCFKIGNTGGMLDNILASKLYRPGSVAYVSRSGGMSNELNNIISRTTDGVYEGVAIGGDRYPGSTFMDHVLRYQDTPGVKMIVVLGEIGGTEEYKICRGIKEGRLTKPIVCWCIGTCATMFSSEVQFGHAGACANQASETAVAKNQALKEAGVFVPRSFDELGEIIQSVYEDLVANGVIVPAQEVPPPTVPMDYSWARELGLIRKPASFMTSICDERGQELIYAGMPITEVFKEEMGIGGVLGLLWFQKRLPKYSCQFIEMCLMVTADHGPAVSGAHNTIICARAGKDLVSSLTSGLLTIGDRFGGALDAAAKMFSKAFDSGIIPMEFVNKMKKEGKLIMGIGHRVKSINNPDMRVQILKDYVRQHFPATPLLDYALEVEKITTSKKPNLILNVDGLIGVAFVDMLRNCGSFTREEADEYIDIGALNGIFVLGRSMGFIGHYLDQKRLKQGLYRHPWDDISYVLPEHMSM
# Experimental: ACLY activity was assessed in a cell-free system using an ADP-Glo dependent assay, as previously described. Briefly, the reaction was conducted in a 384-well plate containing 2 µL of substrate (5 mmol/L ATP, 30 mmol/L citrate, 15 mmol/L CoA) in kinase buffer (40 mmol/L Tris base, 10 mmol/L MgCl2, 5 mmol/L DTT). The reaction was initiated by adding 20 nmol/L recombinant human ACLY protein and various concentrations of the compounds, followed by incubation for 30 min at 37 °C. During the reaction, ACLY converted ATP to ADP. ADP levels, which reflect ACLY activity, were quantified using the ADP-Glo assay kit (V9102, Promega, Madison, USA) in accordance with the manufacturer's instructions. The enzymatic activity curve was analyzed using the log (inhibitor) versus normalized response-variable slope function in GraphPad Prism.
# Apoe-/- mice = assay: Liver Acly knockdown by GalNAc-siAcly in Apoe-/- mice; type: in vivo, mouse
# Experimental: Conjugating siRNA with N-acetylgalactosamine (GalNAc) is a promising strategy for depleting target gene expression specifically in the liver. […] In this study, we employed GalNAc-siAcly to knock down Acly in the liver of Apoe^-/- mice that were fed high cholesterol diet for 15 weeks. ISOGK was administered starting from the 7th week for 8 additional weeks (Figure 7A). […] The qRT-PCR results also supported the same conclusion (Figure S7A).
# Figure 7 The anti-atherosclerotic and lipid-lowering effects of isoginkgetin in Apoe^-/- mice were ACLY-dependent. (A) Scheme of study design. Briefly, male Apoe^-/- mice were induced by high cholesterol diet for 7 weeks and administrated GalNAc-siAcly (3 mg/kg/month). Animals then received ISOGK (20 mg/kg/day) treatment for another 8 weeks. (B) Immunoblotting analysis and quantification of ACLY protein in liver and kidney tissues from indicated groups (n = 3). One-way ANOVA followed by Bonferroni's post hoc test. (C) Representative images of Oil Red O staining of en face aortas from male Apoe^-/- mice fed high cholesterol diet. (D) Representative images of ORO staining of the aortic sinus from male Apoe^-/- mice fed high cholesterol diet. (E) Representative images of H&E staining of the aortic sinus from male Apoe^-/- mice fed High cholesterol diet. (F) Quantitative analysis of C-E (n = 6 - 8). One-way ANOVA followed by Bonferroni's post hoc test. (G) Plasma levels of TC, TG, LDL-C and HDL-C in the indicated groups (n = 6 - 8). One-way ANOVA followed by Bonferroni's post hoc test. The data are means ± SEM, n.s., not significant, *P < 0.05, **P < 0.01, ***P < 0.001, ****P < 0.0001.
smiles,measurement,setting,value
"COc1ccc(-c2cc(=O)c3c(O)cc(O)c(-c4cc(-c5cc(=O)c6c(O)cc(O)cc6o5)ccc4OC)c3o2)cc1 [ISOGK, Isoginkgetin]",antioxidant activity against copper-induced LDL oxidation (REM),[1],no antioxidant activity
same,cytotoxicity (CCK-8),HepG2 cell line,no significant cytotoxicity
same,IC50,recombinant ACLY protein,5.46 ± 1.11 µM
same,effect on atherosclerosis in aortic sinus,Apoe-/- mice; Acly knockdown Apoe-/- mice,not observed
same,"lipid-lowering effect (plasma TC, TG, LDL-C, HDL-C)",Apoe-/- mice; Acly knockdown Apoe-/- mice,not further observed
same,aortic plaque area,"Apoe-/- mice; Acly knockdown group (GalNAc-siAcly), 20 mg/kg/day",not decreased further
same,aortic sinus lesion areas and necrotic core area,"Apoe-/- mice; control Apoe-/- mice, 20 mg/kg/day",significantly reduced
same,size of aortic plaques vs vehicle,"Apoe-/- mice; control Apoe-/- mice, 20 mg/kg/day, 8 weeks",significantly lower
